Data reported in patent US9724351B2, “Compounds for the treatment of paramoxyvirus viral infections” (priority 2012, dated 2017).

What was measured:
[1] = system: Respiratory Syncytial Virus (RSV) long strain (ATCC#VR-26); experiment: RSV Antiviral Assay (CPE reduction assay); type: cell-based; settings: human respiratory syncytial virus, 120 h; HEp-2 cells infected with RSV long strain, 5 days, CCK-8 readout; bins (Table 2: less than 1 μM; Table 3: equal to or higher than 1 μM and less than 50 μM); read-out: 50% effective concentration (EC50)
Procedure, shortened: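 HEp-2 cells infected with 100 TCID50 RSV long strain per well, compounds from 100 μM or 1 μM in 9-point ⅓ dilutions, duplicates, 1% DMSO. After 5 days at 37 °C, viable cells measured by CCK-8 (A450, 630 nm background); EC50 by regression on mean O.D.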

[2] = Cytotoxicity Determination; type: cell-based; settings: human, HEp-2 cells, without addition of virus, CCK-8 readout, bins (Table 4: greater than 100 μM; Table 5: equal to or less than 100 μM and greater than 10 μM), read-out: 50% cytotoxicity concentration (CC50)
Procedure, shortened: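 Uninfected cells were exposed to compounds in duplicate over a 7-point ½ dilution series starting at 100 μM final, for 5 days at 37 °C, 5% CO2. CCK-8 was then added for 3-4 h, and CC50 was calculated from optical density.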

Compound | EC50 [1] [µM] | CC50 at 5 days [2] [µM]
COc1cc(C(=O)N[C@H](CO)C(=O)c2ccc(OC)c(-c3ccc(F)c(Cl)c3)n2)ccc1OCCO [Compound 1831] | < 1 | 10 to 100
COc1cc(C(=O)N[C@@H](CO)C(=O)c2ccc(OC)c(-c3ccc(F)c(Cl)c3)n2)ccc1OCCO [Compound 1832] | < 1 | 10 to 100
COc1cc(C(=O)N[C@@H](CCCCN)C(=O)c2ccc(OC)c(-c3csc4c(F)cccc34)n2)ccc1OCCO [Compound 1835] | < 1 | 10 to 100
COc1cc(C(=O)N[C@H](CCCCN)C(=O)c2ccc(OC)c(-c3csc4c(F)cccc34)n2)ccc1OCCO [Compound 1836] | 1 to 50 | 10 to 100
COc1cc(C(=O)NC(CCO)C(=O)c2ccc(OC)c(-c3ccc(F)c(Cl)c3)n2)ccc1OCCO (stereo not drawn) [Compound 1837] | < 1 | 10 to 100
COc1cc(C(=O)NC(C)C(=O)c2ccc(OC)c(-c3ccc(F)c(Cl)c3)n2)ccc1OCCO (stereo not drawn) [Compound 1839] | < 1 | 10 to 100
COc1ccc(C(=O)NCC(=O)c2ccc(N(C)C)c(-c3csc4c(F)cccc34)n2)cc1OC [Compound 2101] | 1 to 50 | > 100
COc1ccc(C(=O)NCC(=O)c2ccnc(-c3csc4c(F)cccc34)c2O)cc1OC [Compound 2102] | 1 to 50 | 10 to 100
COc1cc(C(=O)NCC(=O)c2cc(C)c(OC)c(-c3csc4c(F)cccc34)n2)ccc1OCCO [Compound 2103] | < 1 | 10 to 100
CCc1cc(C(=O)CNC(=O)c2ccc(OCCO)c(OC)c2)nc(-c2csc3c(F)cccc23)c1OC [Compound 2104] | < 1 | 10 to 100
CCc1ccc(C(=O)CNC(=O)c2ccc(OC)c(OC)c2)nc1-c1csc2c(F)cccc12 [Compound 2105] | 1 to 50 | 10 to 100
CCc1ccc(C(=O)CNC(=O)c2ccc(OCCO)c(OC)c2)nc1-c1csc2c(F)cccc12 [Compound 2106] | < 1 | 10 to 100
COc1cc(C(=O)NCC(=O)c2ccc(OC(F)(F)F)c(-c3csc4c(F)cccc34)n2)ccc1OCCO [Compound 2107] | 1 to 50 | 10 to 100
COc1cc(C(=O)NCC(=O)c2cc(OC)c(OC)c(-c3csc4c(F)cccc34)n2)ccc1OCCO [Compound 2108] | < 1 | > 100
CCc1cc(C(=O)CNC(=O)c2ccc(OCCO)c(OC)c2)nc(-c2ccc(F)cc2)c1 [Compound 2109] | < 1 | 10 to 100
CCc1cc(C(=O)CNC(=O)c2ccc(OCCO)c(OC)c2)nc(-c2coc3c(F)cccc23)c1 [Compound 2111] | < 1 | > 100
CCc1cc(C(=O)CNC(=O)c2ccc(OCCO)c(OC)c2)nc(-c2c[nH]c3c(F)cccc23)c1 [Compound 2112] | < 1 | > 100
COc1cc(C(=O)NCC(=O)c2cc(C(C)(C)C)cc(-c3ccc(F)c(Cl)c3)n2)ccc1OCCO [Compound 2115] | < 1 | 10 to 100
COc1cc(C(=O)NCC(=O)c2cn(C(C)C)cc(-c3csc4c(F)cccc34)c2=O)ccc1OCCO [Compound 2200] | < 1 | > 100

Compound | EC50 [1] [µM] | CC50 at 5 days [2] [µM]
CCCn1nc(-c2csc3c(F)cccc23)nc1C(=O)CNC(=O)c1ccc(OC)c(OC)c1 [Compound 2203] | 1 to 50 | > 100
COc1cc(C(=O)NCC(=O)N(C)/N=C/c2c(C)sc3c(F)cccc23)ccc1OCCO [Compound 2300] | < 1 | 10 to 100
CCN(/N=C/c1csc2c(F)cccc12)C(=O)CNC(=O)c1ccc(OCCO)c(OC)c1 [Compound 2301] | < 1 | > 100
CCCN(/N=C/c1csc2c(F)cccc12)C(=O)CNC(=O)c1ccc(OCCO)c(OC)c1 [Compound 2302] | < 1 | 10 to 100
COc1ccc(C(=O)NCC(=O)N(C)/N=C/c2c(C#N)sc3c(F)cccc23)cc1OCCO [Compound 2303] | 1 to 50 | > 100
COc1cc(C(=O)NCC(=O)N(C)/N=C/c2c(F)sc3c(F)cccc23)ccc1OCCO [Compound 2304] | 1 to 50 | 10 to 100
COc1cc(NCCC(=O)N(C)/N=C/c2csc3c(F)cccc23)ccc1OCCO [Compound 2305] | 1 to 50 | 10 to 100
COc1cc(OCCC(=O)N(C)/N=C/c2csc3c(F)cccc23)ccc1OCCO [Compound 2306] | 1 to 50 | > 100
COc1ccc(C(=O)NCC(=O)c2cccc(-n3cnc4c(F)cccc43)n2)cc1OC [Compound 2600] | 1 to 50 | 10 to 100
COc1ccc(C(=O)NCC(=O)c2cccc(-n3ncc4c(F)cccc43)n2)cc1OC [Compound 2601] | 1 to 50 | > 100
COc1ccc(C(=O)NCC(=O)c2cc(Cl)cc(-c3csc4c(F)cccc34)n2)cc1OC [Compound 2604] | 1 to 50 | > 100
COc1cc(C(=O)NCC(=O)c2ccc(OCC3CC3)c(-c3csc4c(F)cccc34)n2)ccc1OCCO [Compound 2617] | < 1 | > 100
COc1cc(C(=O)NCC(=O)c2ccc(OC)c(-c3c(Cl)sc4c(F)cccc34)n2)ccc1OCCO [Compound 2621] | < 1 | > 100
COc1cc(C(=O)NCC(=O)c2ccc(OC)c(-c3csc4c(F)cccc34)n2)ccc1OCCF [Compound 2625] | < 1 | > 100
COc1cc(C(=O)NCC(=O)c2ccc(OC)c(-c3ccc(Cl)c(Cl)c3)n2)ccc1OCCF [Compound 2627] | < 1 | > 100
COc1cc(C(=O)NCC(=O)c2ccc(OC)c(-c3ccc(F)c(Cl)c3)n2)ccc1OCC1CC1 [Compound 2638] | < 1 | 10 to 100
CCOc1ccc(C(=O)NCC(=O)c2ccc(OC)c(-c3ccc(F)c(Cl)c3)n2)cc1OC [Compound 2641] | < 1 | > 100
COc1ccc(C(=O)NCC(=O)c2ccc(OC)c(-c3ccc(F)c(Cl)c3)n2)cc1F [Compound 2642] | 1 to 50 | > 100
COc1cc(C(=O)NCC(=O)c2ccc(OC)c(-c3ccc(F)c(Cl)c3)n2)ccc1OC(F)F [Compound 2646] | < 1 | 10 to 100

Compound | EC50 [1] [µM] | CC50 at 5 days [2] [µM]
COc1cc(C(=O)NCC(=O)c2ccc(OC)c(-c3ccc(F)c(Cl)c3)n2)ccc1OCCF [Compound 2648] | < 1 | > 100
COc1cc(C(=O)NCC(=O)c2ccc(OC)c(-c3ccc(F)c(Cl)c3)n2)ccc1-n1cccn1 [Compound 2649] | 1 to 50 | 10 to 100
COc1cc(C(=O)NCC(=O)c2ccc(OC)c(-c3ccc(F)c(Cl)c3)n2)ccc1-c1cnn(C)c1 [Compound 2651] | 1 to 50 | 10 to 100
COc1ccc(C(=O)NCC(=O)c2ccc3c(n2)-c2c(sc4c(F)cccc24)CO3)cc1OC [Compound 2701] | 1 to 50 | 10 to 100
COc1cc(C(=O)NCC(=O)c2ccc3c(n2)-c2c(sc4c(F)cccc24)CO3)ccc1OCCO [Compound 2703] | 1 to 50 | 10 to 100
COc1ccc(C(=O)NCC(=O)N2CCCN(c3csc4c(F)cccc34)C2=O)cc1OC [Compound 2800] | 1 to 50 | 10 to 100
COc1cc(C(=O)NCC(=O)N(C)C(=O)Nc2csc3c(F)cccc23)ccc1OCCO [Compound 2802] | 1 to 50 | > 100
COc1cc(C(=O)NCC(=O)N(C)C(=O)N(C)c2csc3c(F)cccc23)ccc1OCCO [Compound 2803] | 1 to 50 | > 100
COc1ccc(C(=O)N(C)NC(=O)c2cccc(-c3csc4c(F)cccc34)n2)cc1OC [Compound 3101] | 1 to 50 | 10 to 100
COc1ccc(C(=O)N(C)N(C)C(=O)c2cccc(-c3csc4c(F)cccc34)n2)cc1OC [Compound 3103] | 1 to 50 | 10 to 100
COc1cc(C(=O)NCC(=O)c2ccc(OC)c(-c3c[s+]([O-])c4c(F)cccc34)n2)ccc1OCCO (stereo not drawn) [Compound 3302] | < 1 | 10 to 100
COc1cc(-c2csc3c(F)cccc23)nc(C(=O)CNC(=O)c2ccc(OC)c(OC)c2)n1 [Compound 3401] | 1 to 50 | > 100
COc1ccc(C(=O)NCC(=O)N2CCCC(c3ccc(F)c4sccc34)=N2)cc1OC [Compound 3500] | < 1 | > 100
COc1ccc(C(=O)NCC(=O)N2CCCC(c3csc4c(F)cccc34)=N2)cc1OC [Compound 3501] | < 1 | 10 to 100
COc1cc(C(=O)NCC(=O)c2cc(CO)cc(-c3ccc(F)c(Cl)c3)n2)ccc1OCC1CC1 [Compound 3800] | < 1 | 10 to 100
COc1cc(C(=O)NCC(=O)N2CCN(c3ccc(F)c(Cl)c3)C2=O)ccc1OCCO [Compound 3900] | 1 to 50 | > 100
COc1cc(C(=O)NCC(=O)c2ccc(OC)c(-c3ccc(F)c(Br)c3)n2)ccc1OCc1ncn[nH]1 [Compound 3903] | < 1 | > 100
COc1cc(C(=O)NCC(=O)c2ccc(OC)c(-c3c(C)[nH]c4c(F)cccc34)n2)ccc1OCCO [Compound 4002] | < 1 | 10 to 100
COc1ccc(C(=O)CNC(=O)c2cc(C)on2)nc1-c1ccc(F)c(Cl)c1 [Compound 4202] | 1 to 50 | > 100
